In a melting point compilation (Tetko et al.; mined from patent text by program, amines drawn as free bases though some values may be those of a salt) one finds melting point data, which are given here for 88 compounds.

As a reminder, the melting point is the temperature of the solid-liquid transition.

Regarding `CCCc1c(C(=O)C2CCCCC2)c2ccc(C(N)=O)cc2n1Cc1cc2c(cc1Cl)OCO2`, the melting point was 209 to 211 °C.

With `COC(=O)c1cccn1-c1cc2[nH]c(=O)c(=O)[nH]c2cc1Cl`, the melting point is greater than 260 °C.

Compound `CCOC(=O)c1cn(C2CCCCC2)c2cc(I)ccc2c1=O` returned a melting point of 169 to 171 °C.

Compound `COc1cc2c3c(n(CCCCO)c(=O)c2cc1OC)-c1cc2c(cc1C3=O)OCO2` yielded a melting point of 304 to 308 °C.

`Cc1ncc(CCC(=O)O)s1` registered a melting point of 120 °C.

`CCN1C[C@@H](C(=O)OC(C)(C)C)NC1=O`: the melting point lay within 86 to 87 °C.

Turning to `CC1(C)CC(N(CCO)c2c([O-])[c+](N(CCO)C3CC(C)(C)NC(C)(C)C3)[c+]2[O-])CC(C)(C)N1`, the melting point was in the range of 309 to 311 °C.

Compound `NC(=O)C1=NN(c2cccc(COCC(F)(F)C(F)(F)F)c2)C(c2ccccc2)N1` (stereo not drawn) displayed a melting point of 146 to 148 °C.

For the compound `CCOC(=O)C(=NOC)c1ccccc1CBr`, the melting point was 80 to 81 °C.

In turn, `O=C1NCCC1=Cc1ccccc1OCC(O)CN1CCC(c2ccc3c(c2)CCCC3)CC1` (stereo not drawn) registered a melting point of 157 to 159 °C.

`CCOC(=O)C1=C(C)NC(CO)=C(C(=O)OCC)C1c1ccccc1Cl` (stereo not drawn) gave a melting point of 143 °C.

The compound `Cn1cc2c(n1)Nc1ccc(Cl)cc1NC2=S` registered a melting point greater than 260 °C.

For the compound `CC(C)(O)Cc1nc2cnc3ccccc3c2s1`, the melting point was in the range of 155 to 157 °C.

Regarding `COc1ccc(C(CC(=O)O)N2C(=O)c3cc(Cl)c(Cl)cc3C2=O)cc1` (stereo not drawn), the melting point lay in the range of 182 to 185 °C.

Regarding `O=S(=O)(NCC(O)(Cn1cncn1)c1ccc(Cl)cc1Cl)c1cccs1` (stereo not drawn), the melting point lay within 169 to 180 °C.

With `O=C(Nc1ccc(OCCN2CCCC2=O)c2ccccc12)c1cc(F)cc(N2CCOCC2)c1`, the melting point was 172 to 173 °C.

Consider `Cc1nc(S(=O)(=O)Cc2ccccc2)nc(C)c1Br`, for which the melting point was 138 to 139 °C.

For the compound `COC(=O)C(C)Oc1cc(Cl)ccc1COc1ccc(-c2nn(C)c(OC(F)F)c2Cl)cc1` (stereo not drawn), the melting point is 61 to 64 °C.

In the case of `COC(=O)Oc1c(Cl)cc(Cl)cc1[N+](=O)[O-]`, the melting point fell in the range of 60 to 61 °C.

The compound `O=C(N[C@H](Cc1cccc(OC(F)(F)C(F)F)c1)[C@@H](O)c1ccnc(F)c1)c1cccc2c1C=CCCC2` (racemic) yielded a melting point of 159 to 160 °C.

`O=C1CSc2ccc(S(=O)(=O)Cl)cc2N1` returned a melting point of 165 to 167 °C.

On to `O=c1c2c(c1=O)NCCCN2`, for which the melting point is 335 °C.

In turn, `Nc1ncc(-c2cc(Cl)cc(Cl)c2Cl)c(N)n1` had a melting point of 246 to 249 °C.

Take `COc1ccc2c(c1)CC(=O)c1sccc1C2=C1CCN(C)CC1`: the melting point fell in the range of 157 to 158 °C.

For the compound `O=C(O)/C=C/c1ccc(C(=C2CCCCCC2)c2ccc(O)c(F)c2)cc1`, the melting point lay in the range of 164 to 165 °C.

The compound `COc1cccc(C=CCN2CCc3nc(N)sc3CC2)c1OC` came in with a melting point of 87 °C.

As to `O=C1CCC2=C1C(c1cccc([N+](=O)[O-])c1)C1=C(CCCS1)N2` (stereo not drawn), the melting point was greater than 260 °C.

In turn, `CCC(CC(=O)NC(=O)OC(C)(C)C)Nc1ccc(OC)cc1` (stereo not drawn) returned a melting point of 65 to 66 °C.

`COc1ccc(C(=O)Cc2cc(OC)ccc2OC)cc1` showed a melting point of 108 to 111 °C.

`Cc1nnc2ncc(-c3ccccc3F)nn12` showed a melting point of 200 to 204 °C.

Compound `CC1(C)CC(N(CCO)CC(O)COc2ccc(C(C)(C)c3ccc(OCC(O)CN(CCO)C4CC(C)(C)NC(C)(C)C4)cc3)cc2)CC(C)(C)N1` (stereo not drawn) yielded a melting point of 69 to 71 °C.

`CN1C(C)(C)CC(NC(=O)c2ccc(-c3nc4cc(Cl)c(Cl)cc4[nH]3)cc2)CC1(C)C` registered a melting point greater than 280 °C.

The compound `Clc1ccc(-c2nc(Cl)nc(Cl)c2-c2ccccc2)cc1` returned a melting point of 129 to 131 °C.

The compound `CCOC(=O)c1cc(-n2c(=O)c3c(n(C)c2=O)CCC3)ccc1Cl` gave a melting point of 141 to 143 °C.

Turning to `O=C(O)CCCNC(=O)c1ccccc1NC(=O)c1ccccc1Br`, the melting point lay within 117 to 118 °C.

`CC(C)c1ccc(S(=O)(=O)Nc2ccc(OC(F)(F)F)cc2I)cc1` came in with a melting point of 72 °C.

Compound `O=[N+]([O-])c1ccc(NCCS(=O)(=O)NCCCOc2cccc(CN3CCCCC3)c2)cc1` showed a melting point of 140 to 142 °C.

The compound `Nc1ccc(C(O)(C(F)(F)F)C(F)(F)F)cc1S` had a melting point of 121 to 123 °C.

The compound `CCC(CC)CNC(=O)c1ccc2cccc(Cc3ccc(C(=O)OC)cc3OC)c2c1` yielded a melting point of 130 °C.

Turning to `CSc1nc2cnc3ccccc3c2s1`, the melting point lay within 116 to 119 °C.

Regarding `N#CNC(=O)C12CC3CC(CC(C3)C1)C2`, the melting point lay within 164 to 166 °C.

Regarding `CN(CCN1CCN(c2cccc(C(F)(F)F)n2)CC1)C(=O)c1ccc(F)cc1`, the melting point was determined as 144 °C.

As to `Cc1cccc(C2CC(=O)c3ccccc3O2)c1` (stereo not drawn), the melting point is 156 to 158 °C.

As to `C=CCN(CC=C)Cc1noc(-c2ncn3c2[C@@H]2CCCN2C(=O)c2c(Cl)cccc2-3)n1`, the melting point fell in the range of 175 to 177 °C.

Consider `CCCCCCCCCCCCNC(=O)COc1ccc(O)cc1[N+](=O)[O-]`, for which the melting point is 150 to 151 °C.

As to `C=CC(C)(CCC=C(C)C)OCC(=O)c1cc(C(C)C)c(O)c(C(C)C)c1` (stereo not drawn), the melting point is 71 to 72 °C.

With `CSc1sc(C=O)cc1C=O`, the melting point was in the range of 135 to 137 °C.

`COc1cscc1C(=O)NN` had a melting point of 91 to 92 °C.

`CC(C)=CCN1CCc2c(sc(N)c2C(=O)c2ccc(I)cc2)C1` came in with a melting point of 148 to 150 °C.

In the case of `Cc1ccc(Oc2ccc(S(=O)(=O)C[C@H]([C@H]3COC(C)(C)O3)N(O)C=O)cc2)cc1`, the melting point is 156 to 158 °C.

The compound `CCCCCCCCCCCc1cccc(Oc2c(N)nc(N)nc2CC)c1` yielded a melting point of 97 to 99 °C.

Compound `C=CC(C)(C)C(O)(COc1ccc(-c2ccccc2)cc1)Cn1cncn1` (stereo not drawn) displayed a melting point of 85 to 87 °C.

`CCCC(CCC)N(C[C@H]1CCC[C@H](CN(C(=O)Nc2ccc(N(C)C)cc2)C(CCC)CCC)C1)C(=O)Nc1ccc(N(C)C)cc1` (relative stereo): the melting point fell in the range of 122 to 126 °C.

In turn, `CC(=O)Oc1ccc(-c2ccccc2)cc1C1(OC(C)=O)C(=O)c2ccccc2C1=O` returned a melting point of 196 to 198 °C.

For `FC(F)(F)c1ccc2nc(-c3csc(Nc4c(Cl)cccc4Cl)n3)[nH]c2c1`, the melting point is 242 to 243 °C.

`OCc1ccc(-c2nn(Cc3ccccc3)c3ncncc23)o1` had a melting point of 165 °C.

Take `COc1ccc2c(c1)c(C(=O)CCC(=O)O)c(C)n2Cc1ccc(Br)cc1`: the melting point was in the range of 215 to 217 °C.

Take `CC(C)(C)Nc1c(NCc2ccc(OC(F)(F)F)cc2)c(=O)c1=O`: the melting point lay within 292 to 294 °C.

Compound `CN(C)CCc1cn(C(=O)c2ccccc2)c2ccc(O)cc12` returned a melting point of 154 to 156 °C.

In turn, `COc1ncccc1-c1cccn2nc(Cl)nc12` had a melting point of 218 to 219 °C.

The compound `CCCCOc1ccc(Cl)cc1C(=O)NCCc1ccc(CC(=O)O)cc1` had a melting point of 104 to 105 °C.

Compound `CS(=O)(=O)Nc1cc([C@@H](O)CNC2CCN(c3ccc(S(=O)(=O)N4CCC[C@@H]4C(=O)OCc4ccccc4)cc3)CC2)ccc1O` came in with a melting point of 62 to 69 °C.

Compound `CCOC(=O)c1ccc(C(=O)CC(O)(c2cc(Cl)cc(Cl)c2)C(F)(F)F)cc1C` (stereo not drawn) showed a melting point of 72 to 74 °C.

In turn, `Cc1c(Cc2cccc(C(F)(F)F)c2)sc2c(-c3cccc(C(=O)NCCOC(C)C)c3)cccc12` showed a melting point of 121 to 122 °C.

Take `O=C1CCC(O)(c2ccc(F)c(F)c2)CC1`: the melting point is 84 to 85 °C.

As for `CC(=O)NC(NNc1ccccc1)C(=O)NCc1ccccc1` (stereo not drawn), the melting point lay in the range of 132 to 134 °C.

In turn, `NC(=O)CN1CCC(C(=O)N2CCN3C(=O)OC(c4ccccc4)(c4ccccc4)C3C2)CC1` (stereo not drawn) registered a melting point of 253 to 255 °C.

The compound `Cc1ccc(-c2noc(C(F)F)c2-c2ccc(S(N)(=O)=O)cc2)cc1` yielded a melting point of 169 to 172 °C.

As for `O=C(CCN1CCOCC1)Nc1ccc2c(=O)c3ccc(NC(=O)CCN4CCOCC4)cc3[nH]c2c1`, the melting point is greater than 320 °C.

On to `CC(=O)C(=NO)C(N)=O`, for which the melting point fell in the range of 96 to 97 °C.

Consider `Cc1ccc(C(=O)O)cc1OCc1ccccc1`, for which the melting point fell in the range of 159 to 161 °C.

For the compound `CCOc1c(C2=C(C(C)(C)C)C(C)(C)CO2)sc2ccc(O[Si](C)(C)C(C)(C)C)cc12`, the melting point is 64 to 65 °C.

In turn, `CCn1ncc2c3c(cnc21)C(N)(OC)N=C1N=CNN13` (stereo not drawn) yielded a melting point of 215 to 216 °C.

Regarding `Cc1ccc(S(=O)(=O)N2CCCC2c2ccc(F)c(Cl)c2)cc1` (racemic), the melting point amounted to 96 °C.

On to `CCOC(=O)Cc1c(C)n(Cc2csc(-c3ccc(Cl)cc3)n2)c2ccc(OCc3csc(-c4ccccc4)n3)cc12`, for which the melting point is 155 to 157 °C.

Turning to `COc1cccc(CSCCNC(=O)c2c(Cl)cccc2OC)c1`, the melting point lay within 58 to 59 °C.

`Cc1nc2c(N)nc3ccccc3c2n1CC(C)(C)C(N)=O` registered a melting point of 284 to 287 °C.

For the compound `COc1ccc(CBr)c(Cl)c1Cl`, the melting point lay in the range of 101 to 102 °C.

For the compound `COC(=O)c1ccc(S(C)(=O)=O)nc1OC`, the melting point is 88 to 90 °C.

In the case of `CCOC(=O)C1=CC(C(=O)c2cc(Cl)ccc2O)=CN2CCc3c([nH]c4ccccc34)C12C(=O)OCC` (stereo not drawn), the melting point turned out to be 216 °C.

Consider `O=C(O)C1=Cc2ccc3ccccc3c2OC1C(F)(F)F` (stereo not drawn), for which the melting point fell in the range of 246 to 249 °C.

`O=C(O)CCc1ccc(CC(=O)OCc2ccccc2)cc1` returned a melting point of 62 to 64.5 °C.

With `COc1ccc(C(=O)CCCCCN2CCC(CNC(=O)c3cc(Cl)c(N)cc3OC)CC2)cc1OC`, the melting point fell in the range of 102 to 105 °C.

`CNCc1nnc2n1-c1ccc(Cl)cc1C(c1ccccc1)=NC2` came in with a melting point of 152 to 156 °C.

For `CCC12CCC3C4CCC(=O)C=C4C(Cl)CC3C1C(OC(C)=O)CC2=O` (stereo not drawn), the melting point worked out at 115 °C.

`Nc1c(Br)cc(F)cc1[N+](=O)[O-]` returned a melting point of 71.5 to 72.5 °C.

In turn, `OCc1c(C(F)(F)F)[nH]c2ccccc12` displayed a melting point of 106 °C.

On to `CN1CCN(c2cccc3c2C[C@H](NC(=O)c2ccc(C4CCCCC4)cc2)CC3)CC1`, for which the melting point was 224 to 226 °C.
